Measured values from article PMC1940322, “The Effect of PPARα, PPARδ, PPARγ, and PPARpan Agonists on Body Weight, Body Mass, and Serum Lipid Profiles in Diet-Induced Obese AKR/J Mice” (PPAR Research, 2007).

Tests used:
[1] = system: fatty acid oxidation in mouse liver; test: Ex vivo fatty acid oxidation in liver homogenates (14C-CO2 capture); details: liver extracts from animals treated for 28 days
Method: Fatty acid oxidation (FAO) was determined by ^14C-labeled CO2 capture from tissue homogenates using a method modified from Dohm et al.. Following treatment with either vehicle or a PPAR agonist, livers from fed mice were surgically removed and a section excised from the same lobe. The tissue was immediately weighed, minced with scissors and placed in tubes (Falcon #2063) on ice. Cold SET buffer (250 mM Sucrose, 1 mM EDTA, 10 mM Tris, pH 7.4) was added at a ratio of 10 mL SET:1 gram of tissue and the tissue homogenized on ice for 15 sec using a hand-held homogenizer (Polytron PT1200; Kinematica AG). The homogenates remained on ice until assayed.
The labeled reaction buffer was prepared by first drying ^14C-oleic acid (0.5 μCi/reaction; PerkinElmer #NEC-317) under nitrogen. The dried fraction is re-suspended in unlabeled oleic acid such that the final concentration of oleic acid in the reaction buffer was 0.2 mM. BSA was added slowly while mixing to a final concentration of 0.5% and the mixture was incubated at 37°C for 15 minutes. The labeled cocktail was then added to the reaction buffer to give a produce concentration of 100 mM sucrose, 10 mM Tris pH 7.4, 4 mM ATP, 0.05 mM Coenzyme A, 0.1 mM malic acid, 1 mM magnesium chloride, 80 mM potassium chloride, 5 mM potassium phosphate, 0.2 mM EDTA, and 2 mM L-carnitine, as described previously.
Oxidation reactions were performed in tubes (Falcon #352059) fitted with a stopper top (KONTES Glass Co., #882310-0000), center well (KONTES #882320-0000), and filter (Socorex #322.02) soaked with 175 μL of 1N NaOH. 100 μL of homogenate was dispensed into each tube and the reactions initiated by adding 400 μL of reaction buffer. The tubes were quickly capped and incubated with gentle shaking for 60 minutes in a 37°C water bath. After incubation, the filters were removed, from the tubes, placed in 7 mL of scintillant, and counted for 2 minutes (PerkinElmer Tri-Carb 3100TR). The oxidative activity of each compound was calculated as nmole CO2 captured/gram tissue/hour and reported as fold change relative to vehicle control.
On the final day of each experiment, a terminal blood sample (800–1000 μL) was obtained via cardiac puncture under isoflurane anesthesia. Whole blood was placed in a Terumo Capiject blood collection tube (Terumo Medical Corp., Elkton, Md, USA), allowed to sit at room temperature for 20 minutes then centrifuged to obtain serum. Serum levels of glucose, triglycerides, glycerol, nonesterified fatty acids, total cholesterol, the high-density lipoprotein cholesterol, and β-hydroxybutyrate were determined in all mice using an Olympus AU640 clinical chemistry immuno-analyzer (Olympus America Inc., Melville, NY, USA). In addition, liver weights were obtained following the terminal blood sample on the final day of the study and samples were used to determine liver fatty acid oxidation activity.

murine PPARγ = target: T1, murine PPARγ (Mus musculus, UniProt P37238); test: PPAR-GAL4 transient transfection transactivation assay (SPAP reporter) in CV-1 cells, PPARγ; assay type: cell-based; details: for EC50: CV-1 cells, GAL4 chimera, read-out: mPPARγ, murine receptor activation EC50; for mPPARγ %Max: maximal activation vs reference comparator
T1 construct: expressed in transfected cells; host or cells: CV-1 cells
T1 sequence (P37238 238-503 limits assumed): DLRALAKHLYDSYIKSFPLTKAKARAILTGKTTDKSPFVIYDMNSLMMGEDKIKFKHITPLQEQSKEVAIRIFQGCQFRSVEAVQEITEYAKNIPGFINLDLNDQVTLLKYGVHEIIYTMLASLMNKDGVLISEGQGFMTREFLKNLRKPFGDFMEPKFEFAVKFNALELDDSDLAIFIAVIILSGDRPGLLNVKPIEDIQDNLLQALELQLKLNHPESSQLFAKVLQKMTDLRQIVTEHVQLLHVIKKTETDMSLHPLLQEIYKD
Method: (§1) The functional potency of selected ligands was evaluated using a transient transfection assay in CV-1 cells. The ligand binding domains for murine PPARα, PPARδ, and PPARγ were fused to the yeast transcription factor GAL4 DNA binding domain as a chimera. CV-1 cells were propagated and transiently transfected with expression vectors for the respective PPAR chimera as previously described.

murine PPARδ = target: T2, murine PPARδ (Mus musculus, UniProt P35396); test: PPAR-GAL4 transient transfection transactivation assay (SPAP reporter) in CV-1 cells, PPARδ; assay type: cell-based
T2 construct: expressed in transfected cells; host or cells: CV-1 cells
T2 sequence (P35396 210-438 limits assumed): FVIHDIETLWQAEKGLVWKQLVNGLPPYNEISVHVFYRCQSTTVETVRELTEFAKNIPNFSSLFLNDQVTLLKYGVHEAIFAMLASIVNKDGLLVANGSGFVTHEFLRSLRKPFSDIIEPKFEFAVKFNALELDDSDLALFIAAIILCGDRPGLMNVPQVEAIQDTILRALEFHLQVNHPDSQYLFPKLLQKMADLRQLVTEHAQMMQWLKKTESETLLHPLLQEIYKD
Method: as §1

Row | EC50 (murine PPARδ; CV-1 cells, GAL4 chimera, read-out: mPPARδ, murine receptor activation EC50) [µM] | mPPARδ %Max (murine PPARδ; maximal activation vs reference comparator) [%] | selectivity for PPARγ over the other murine PPAR subtypes (murine PPARγ; murine receptors) [fold] | Structure (SMILES) | effect on liver FAO (in words) [1] | increase in FAO ([1]; relative to vehicle control) [fold] | EC50 (murine PPARγ) [µM] | mPPARγ %Max (murine PPARγ) [%] | effect on liver FAO (in words) ([1]; listed as PPARγ agonist)
1 |  |  |  | Cc1cc(SCc2sc(-c3ccc(C(F)(F)F)c(F)c3)nc2C)ccc1OCC(=O)O [GW0742] | significant increase in liver FAO | 1.9 | 10 | 67 | 
2 | 10 | 12 | > 1000 | COC(=O)c1ccccc1N[C@@H](Cc1ccc(OCCc2nc(-c3ccccc3)oc2C)cc1)C(=O)O [GW7845] | no effect on FAO in mouse liver |  | 0.0012 | 247 | not different from vehicle
3 |  |  |  | CCCCCCCN(CCc1ccc(SC(C)(C)C(=O)O)cc1)C(=O)Nc1ccc(F)cc1F [GW9578] | not different from vehicle |  | 2.82 | 96 | 
